In patent US11787772B2, “Carboxylic diarythiazepineamines as mixed mu- and delta-opioid receptor agonists” (THE TRUSTEES OF COLUMBIA UNIVERSITY IN THE CITY OF NEW YORK, priority 2017, dated 2023):
Structures can show the parent of a compound that is named as a salt.

Key:
[1] = molecular target: T1, human mu opioid receptor (MOR) (Homo sapiens, UniProt P35372); assay: BRET assay measuring G protein activation, agonist activity at human MOR; format: cell-based; settings: for MOR potency relative to analogs lacking substitution at position 2: dihalo-substituted core
T1 construct: expressed in transfected cells; host or cells: HEK-293T
T1 sequence (P35372 whole entry): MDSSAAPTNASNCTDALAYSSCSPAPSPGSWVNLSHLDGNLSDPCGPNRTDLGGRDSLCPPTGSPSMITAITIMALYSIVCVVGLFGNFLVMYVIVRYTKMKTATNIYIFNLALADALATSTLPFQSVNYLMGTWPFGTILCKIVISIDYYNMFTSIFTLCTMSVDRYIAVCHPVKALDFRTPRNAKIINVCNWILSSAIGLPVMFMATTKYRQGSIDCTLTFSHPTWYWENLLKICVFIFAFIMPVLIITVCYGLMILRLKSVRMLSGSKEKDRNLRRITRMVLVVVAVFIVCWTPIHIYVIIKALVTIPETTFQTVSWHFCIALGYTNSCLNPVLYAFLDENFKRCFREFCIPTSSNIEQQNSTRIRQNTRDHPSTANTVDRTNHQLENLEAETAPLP
Method: (§1) The diarylthiazepinamine carboxylic acids (9) were tested for agonist activity at the human mu opioid receptor (MOR) and delta opioid receptor (DOR) using bioluminescence resonance energy transfer (BRET) assays measuring G protein activation as previously described (Table 1) (Rives, M.-L. et al. 2012; Negri, A. et al. 2013).
Human MOR cDNA was transfected alongside GααB with RLuc8 inserted at position 91 (GααB—RLuc8), Gβ1 (β1), and Gγ2 fused to the full-length mVenus at its N terminus (mVenus-γ2) into HEK-293T cells (5×10^6 cells/plate) in 10-cm dishes using PEI (Polysciences Inc.; Warrington, PA) in a 1:1 ratio diluted in Opti-MEM (Life Technologies Corp.; Grand Island, NY) to assay for G protein activation as described previously (Rives, M.-L. et al. 2012; Negri, A. et al. 2013). Cells were maintained in Dulbecco's Modified Eagle Medium (high glucose #11965; Life Technologies) supplemented with 10% FBS (Premium Select, Atlanta Biologicals; Atlanta, GA) and 100 U/mL penicillin and 100 μg/mL streptomycin (#15140, Life Technologies). After 24 hours the media was changed, and the experiment was performed 24 hours later (48 hours after transfection).
(§2) Transfected cells were dissociated and re-suspended in phosphate-buffered saline (PBS). Approximately 200,000 cells/well were added to a black-framed, white well 96-well plate (#60050; Perkin Elmer; Waltham, MA). The microplate was centrifuged and the cells were re-suspended in PBS. Then 5 μM of the luciferase substrate coelenterazine H was added to each well for 5 minutes. Following coelenterazine H addition, ligands were added and the BRET signal was measured at 5 minutes on a PHERAstar FS plate reader. Quantification of the BRET signal required calculating the ratio of the light emitted by the energy acceptor, mVenus (510-540 nm), over the light emitted by the energy donor, RLuc8 (485 nm). […] Dose response curves were fit using a three-parameter logistics equation in GraphPad Prism 6.
The additional diarylthiazepinamine carboxylic acids (9i, 9j, 9k, and 91) were tested for agonist activity at the human mu opioid receptor (MOR) using bioluminescence resonance energy transfer (BRET) assays measuring G protein activation (Table 2) as previously described (Rives, M.-L. et al. 2012; Negri, A. et al. 2013; Example 2 of the present application).

[2] = molecular target: T2, human delta opioid receptor (DOR) (Homo sapiens, UniProt P41143); assay: BRET assay measuring G protein activation, agonist activity at human DOR; format: cell-based
T2 construct: expressed in transfected cells
T2 sequence (P41143 whole entry): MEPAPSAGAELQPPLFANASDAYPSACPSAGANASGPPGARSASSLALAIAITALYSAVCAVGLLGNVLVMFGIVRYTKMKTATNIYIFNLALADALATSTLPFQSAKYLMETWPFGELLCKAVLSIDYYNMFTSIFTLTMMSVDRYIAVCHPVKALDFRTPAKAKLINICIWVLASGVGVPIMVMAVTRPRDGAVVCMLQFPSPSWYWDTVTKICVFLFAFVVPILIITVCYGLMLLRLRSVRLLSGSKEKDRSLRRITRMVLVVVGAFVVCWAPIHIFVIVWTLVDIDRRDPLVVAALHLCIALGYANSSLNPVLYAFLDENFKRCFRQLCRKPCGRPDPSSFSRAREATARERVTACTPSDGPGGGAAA
Method: as §1, §2

[3] = system: male C57BL/6 mice; assay: Analgesic activity in hot plate assay; format: in vivo, mouse; settings: for ED50: Mus musculus, sc, hot plate 55° C., male C57BL/6 mice, tested at 15 post-injection; for Analgesic activity in the mouse hot plate assay: much higher potency than tianeptine
Method: Male C57BL/6 mice were timed for latency to jump on a hot-plate apparatus set to 55° C., using a 30 s cutoff to prevent tissue damage. Following a baseline test, animals were injected subcutaneously (s.c.) with escalating doses of drug and tested at […] (time of maximal effect). Dose-response curves were fit via nonlinear regression using GraphPad Prism (La Jolla, CA).

[4] = physchem; settings: 25 °C, thermodynamic from solid
Method: Test compounds (4 mg) were added to 200 μL of one of the tested aqueous solutions (hereinafter—buffer): 100 mM aqueous HCl (pH 1) or 100 mM Na-phosphate buffer (pH 7). The obtained suspensions/solutions with the theoretical concentration of 20 mg/mL were further allowed to equilibrate at 25° C. on a thermostatic orbital shaker for 24 hours and then centrifuged at 6000 rpm for 4 minutes and filtered through HTS filter plates using a vacuum manifold. In parallel, compound dilutions in 50% acetonitrile/HCl and 30% acetonitrile/Na-phosphate buffer mixes were prepared to theoretical concentrations of 0 mg/mL (blank), 0.1 mg/mL, 0.2 mg/mL, and 0.4 mg/mL in duplicates to generate calibration curves falling within the optimum UV absorption range. The filtrates of test compounds were diluted 100-fold with acetonitrile-buffer mixtures before measuring. The filtered supernatant test samples were transferred to 96-well plates and measured for absorbance in the 200-550 nm range with 5 nm step increment. The concentrations of compounds in supernatants were calculated using the measured absorbance and the previously determined calibration curve. Proper absorbance wavelengths for calculations were selected for each compound manually based on absorbance maxima (absolute absorbance unit values for the minimum and maximum concentration points within 0-2.5 OD range).

[5] = Solubility determination (Method A), neutral water; format: physicochemical; settings: for solubility at 24 h: distilled water, thermodynamic from solid, neutral water, 20° C., Method A (24 h stirring), average of 2 independent trials, read-out: Aqueous Solubility (mg/mL @ 20° C.)
Method: (§3) A quantity of the appropriate compound sufficient to saturate the resulting solution was added to distilled water (0.50 mL) and the mixture was stirred vigorously for 24 h at room temperature (20° C.). The mixture was then centrifuged for 3 min. at 21,000×g and the stir bar was carefully removed. The mixture was then centrifuged again for 5 min. at 21,000×g and the supernatant was carefully removed by syringe and passed through a […] syringe filter. An aliquot (300 μL) of the filtered supernatant was concentrated in vacuo and the mass of the residual solids determined in order to calculate the solubility.

[6] = Solubility determination (Method B), neutral water; format: physicochemical; settings: for solubility at 2 h: distilled water, thermodynamic from solid, neutral water, 20° C., Method B (2 h orbital shaker), read-out: Aqueous Solubility (mg/mL @ 20° C.)
Method: as §3, with “agitated on an orbital shaker” for “was stirred vigorously”, “2” for “24”, “centrifuged” for “centrifuged for 3 min. at 21,000×g and the stir bar was carefully removed. The mixture was then centrifuged again”

SMILES: CN1c2ccccc2C(NCCCCCCC(=O)O)c2cc(F)c(Br)cc2S1(=O)=O (stereo not shown) [Compound 9b, 7-((3-Bromo-2-fluoro-6-methyl-5,5-dioxido-6,1-dihydrodibenzo [c,f][1,2]thiazepin-11-yl)amino) heptanoic acid hydrochloride salt]
- EC50 [1]: 83.1 ± 5.7 nM
- MOR potency relative to analogs lacking substitution at position 2 [1]: equipotent or more potent
- EC50 [2]: 11500 ± 2200 nM
- ED50 [3]: 5.1 mg/kg
- Analgesic activity in the mouse hot plate assay [3]: potent analgesics
- solubility ([4]; pH 1, simulated gastric fluid): 1100 µg/mL
- solubility ([4]; pH 7, aqueous buffer): 840 µg/mL
- solubility at 24 h [5]: 9.8 mg/mL
- Solubility relative to monohalo counterpart bromotianeptine ([5]; neutral unbuffered water): 2-3 fold

SMILES: CN1c2ccccc2C(NCCCCCCC(=O)O)c2cc(F)c(Cl)cc2S1(=O)=O.Cl (stereo not shown) [Compound 9j, 7-((3-chloro-2-fluoro-6-methyl-5,5-dioxido-6,11-dihydrodibenzo [c,f][1,2]thiazepin-11-yl)amino)heptanoic acid hydrochloride salt]
- EC50 [1]: 129 nM
- MOR potency relative to analogs lacking substitution at position 2 [1]: equipotent or more potent
- solubility ([4]; pH 1, simulated gastric fluid): 5300 µg/mL
- solubility ([4]; pH 7, aqueous buffer): 70 µg/mL

SMILES: CN1c2ccccc2C(NCCCCCCC(=O)O)c2cc(F)c(I)cc2S1(=O)=O.Cl (stereo not shown) [Compound 9k, 7-((2-fluoro-3-iodo-6-methyl-5,5-dioxido-6,11-dihydrodibenzo [c,f][1,2]thiazepin-11-yl)amino) heptanoic acid hydrochloride salt]
- EC50 [1]: 4.6 nM
- MOR potency relative to analogs lacking substitution at position 2 [1]: equipotent or more potent
- ED50 [3]: 1.7 mg/kg
- Analgesic activity in the mouse hot plate assay [3]: potent analgesics
- solubility ([4]; pH 1, simulated gastric fluid): 2700 µg/mL
- solubility ([4]; pH 7, aqueous buffer): 390 µg/mL
- solubility at 2 h [6]: 5.7 mg/mL
- Solubility relative to monohalo counterpart iodotianeptine ([6]; neutral unbuffered water): 2-3 fold

SMILES: CN1c2ccccc2C(NCCCCCCC(=O)[O-])c2ccc(Cl)cc2S1(=O)=O.[Na+] (stereo not shown) [Tianeptine (Na salt), Tianeptine, reference compound]
- ED50 [3]: 15 mg/kg

SMILES: CN1c2ccccc2C(NCCCCCCC(=O)O)c2ccc(Br)cc2S1(=O)=O.Cl (stereo not shown) [bromotianeptine, reference compound]
- solubility ([4]; pH 1, simulated gastric fluid): < 100 µg/mL
- solubility ([4]; pH 7, aqueous buffer): 620 µg/mL
- solubility at 24 h [5]: 4.5 mg/mL

SMILES: CN1c2ccccc2C(NCCCCCCC(=O)O)c2ccc(I)cc2S1(=O)=O.Cl (stereo not shown) [iodotianeptine, reference compound]
- solubility ([4]; pH 1, simulated gastric fluid): < 100 µg/mL
- solubility ([4]; pH 7, aqueous buffer): 150 µg/mL
- solubility at 2 h [6]: 2.3 mg/mL
